Experimental data as given in patent publication US20090209589A1, “N-[(PYRIDIN-2-YL) METHOXY] HETROCYCLYL CARBOXAMIDE DERIVATIVES AND RELATED COMPOUNDS AS FUNGICIDES” (Bayer Cropscience SA, priority 2006, published 2009).

What was measured:
Alternaria alternata = assay: Cell test on Alternaria alternata; type: cell-based; details: under similar conditions (2 ppm, OD at 620 nm after 5 days)
Description: The growth of Alternaria alternata is performed on PDA medium at 20° C. under black light during 14 days. The PDA medium is prepared by mixing 39 grams of PDA (Merck) in 1 liter of demineralized water.
The medium is sterilized by autoclave 15 minutes at 121° C. After 14 days of growth, the spores of Alternaria alternata are recovered in sterilized water and the concentration of spores adjusted at 10^6 spores per ml.
The compounds is solubilized in DMSO and added to sterile liquid glucose/mycopeptone medium (14.6 g/l of D-glucose, 7.1 g/l of mycological peptone (Oxoid) and 1.4 g/l of yeast extract (Merck)) at a concentration of 2 ppm. The medium is inoculated with the spore suspension at a concentration of 10^5 spores per ml.
The efficacy of the compounds is assessed by OD measurement at 620 nm after 5 days at 20° C. in comparison with a control.

Pyrenophora teres = assay: In vivo test on Pyrenophora teres (barley net blotch); details: barley plants, preventive spray, dose of 330 ppm, grading 12 days after contamination
Description: The active ingredients tested are prepared by homogenization in a mixture of acetone/tween/DMSO, then diluted with water to obtain the desired active material concentration.
Barley plants (Express variety), sown on a 50/50 peat soil-pozzolana substrate in starter cups and grown at 12° C., are treated at the 1-leaf stage (10 cm tall) by spraying with the active ingredient prepared as described above. Plants, used as controls, are treated with the mixture of acetone/tween/DMSO/water not containing the active material.
After 24 hours, the plants are contaminated by spraying them with an aqueous suspension of Pyrenophora teres spores (12,000 spores per ml). The spores are collected from a 12-day-old culture. The contaminated barley plants are incubated for 24 hours at about 20° C. and at 100% relative humidity, and then for 12 days at 80% relative humidity.
Grading is carried out 12 days after the contamination, in comparison with the control plants.

Structure (SMILES) | activity (Alternaria alternata) | protection (Pyrenophora teres)
O=C(NOCc1ncc(C(F)(F)F)cc1Cl)c1c(F)cccc1F [N-{[3-chloro-5-(trifluoromethyl)pyridin-2-yl]methoxy}-2,6-difluorobenzamide] | did not show any activity | –
O=C(NOCc1ncc(C(F)(F)F)cc1Cl)c1c(Cl)cccc1Cl [2,6-dichloro-N-{[3-chloro-5-(trifluoromethyl)pyridin-2-yl]methoxy}benzamide] | did not show any activity | –
Cc1ccsc1C(=O)NOCc1ncc(C(F)(F)F)cc1Cl [Compound C-1, N-{[3-chloro-5-(trifluoromethyl)pyridin-2-yl]methoxy}-3-methylthiophene-2-carboxamide] | – | at least 70%
O=C(NCCc1ccccn1)c1nccc(-n2ccnc2)c1O [3-hydroxy-4-(1H-imidazol-1-yl)-N-(2-pyridin-2-ylethyl)pyridine-2-carboxamide] | did not show any activity | –
